Measurements: patent US20080311214A1, “Polymerized solid lipid nanoparticles for oral or mucosal delivery of therapeutic proteins and peptides” (Transgene Biotek Limited, priority 2006, published 2008)

System: STZ induced diabetic rats
Assay: Reduction in serum glucose in STZ induced diabetic rats
Assay type: in vivo, Wistar rats
Conditions: 10 IU/Kg insulin via subcutaneous route
Procedure: Wistar rats (150-200 g) of both sexes were obtained from National Institute of Nutrition, Hyderabad. The animals were housed at a room temperature of 22±2° C. with 12 h light/dark cycle and 45-50% relative humidity. The animals had ad libitum access to a standard chow diet (Nutrilab, Banglore) and water except, wherever indicated. After randomization into various groups, the rats were acclimatized for a period of seven days in the new environment before initiation of the experiment.
Diabetes was induced by streptozotocin (STZ) injection. STZ in rats leads to the development of a clinical syndrome characterized by hyperglycemia, excessive osmotic diuresis, and loss of weight, which is similar to human diabetes. Moreover, the STZ-diabetic rat develops the usual chronic microvascular complications (nephropathy, peripheral and autonomic neuropathy) as observed in diabetic patients. Schaan, B. D., et al. Braz J Med Biol Res, 37:12:1895-1902 (2004).
Animals were made diabetic by injecting 50-60 mg/kg STZ dissolved in sodium citrate buffer, pH 4.5. Rats were fasted overnight before STZ administration. STZ-treated rats were used only when they developed elevated plasma glucose levels (confirmed by qualitative measurements of blood glucose >300 mg% 48 h after injection). Metabolic control was evaluated on the basis of plasma glucose and animal weight at the end of the experiments.
The diabetic rats were randomly divided in to six groups consisting of 4 animals. The lyophilized lectin coupled insulin loaded solid lipid nanoparticle formulations (F1, F2, F3 and F4), mentioned in the above examples, containing 10 IU/Kg of total insulin were administered orally to the respective groups after re-dispersing in the appropriate volume of physiological saline solution. The fifth group was treated with 10 IU/Kg of insulin via subcutaneous route and the sixth group was the control group. The control diabetic rats were not treated with insulin or any drug, but an equivalent volume of physiological saline solution was given orally.
The blood samples were collected at each scheduled time intervals. The plasma was separated by centrifugation and serum glucose levels were estimated as described in Bergmeyer, H. U. Methods of Enzymatic Analysis New York: Academic (1974). Plasma samples of all animals were stored at −80° C. until analyzed.

insulin [Unencapsulated Insulin] was tested, and the “Mean % Reduction in serum Glucose Levels” value (2.0 hrs) was 8.2 ± 2.3%, the “Mean % Reduction in serum Glucose Levels” value (3.0 hrs) was 15.1 ± 1.2% and the “Mean % Reduction in serum Glucose Levels” value (4.0 hrs) was 23.2 ± 3.2%. For the same substance, the “Mean % Reduction in serum Glucose Levels” value (5.0 hrs) was 36.2 ± 1.2%, the “Mean % Reduction in serum Glucose Levels” value (6.0 hrs) was 12.1 ± 4.3% and the “Mean % Reduction in serum Glucose Levels” value (8.0 hrs) was 19.2 ± 3.3%. The “Mean % Reduction in serum Glucose Levels” value (10.0 hrs) was 25.1 ± 3.2% and the “Mean % Reduction in serum Glucose Levels” value (12.0 hrs) was 29.2 ± 1.2%.
